According to patent publication US20240180138A1, “Heating Transpiration Composition, and Method for Exterminating Harmful Arthropods Using Same” (SUMITOMO CHEMICAL COMPANY, LIMITED, priority 2021, published 2024):

Experiments:
Assay type in all cases: in vivo
[1] = molecular target: Common house mosquito (Culex pipiens pallens) female adult insects; assay: Test Example 2: knockdown by burning insect repellent incense in metallic cylinder, 7 minutes; conditions: B alone
Experimental: (§1) Wood powder 75 parts by weight, tab powder 5 parts by weight, lees powder 5 parts by weight, siam powder 10 parts by weight, and tapioca starch powder 5 parts by weight were mixed, and appropriate amount of water was added thereto and the resulting mixture was kneaded thoroughly. The kneaded mixture was molded to a sheet shape, and punched out to a spiral shape, and thereafter, the resulting mixture was dried to make an approximate degree of 7 to 10% by weight of moisture contents to prepare the blank insect repellent incense.
(§2) The acetone solution of the testing compounds that were diluted to make the prescribed concentrations were applied dropwise uniformly to the obtained blank insect repellent incense, and then air-dried to prepare the test formulation.
Common house mosquito (Culex pipiens pallens) female adult insects 20 were placed in the glass tube with 4.5 cm of a diameter and 12 cm of a height, and they were shut in the glass tube by covering the opening parts of the top and the bottom thereof with a nylon net having 16 mesh by a rubber band. A metallic cylinder with 22 cm of a diameter and 83 cm of the height was installed and set up, and two (2) of the above glass tube in which common house mosquito (Culex pipiens pallens) were placed were installed in the upper opening part and then fixed. The formulation that was prepared according to the above process was set to fire, and set up in the bottom opening part of the metallic cylinder. Seven (7) minutes later, the number of knockdowned (hereinafter, abbreviated as “KD”) individuals were recorded. The experiments were conducted in triple replicates to calculate the KD ratio.

[2] = molecular target: Common house mosquito (Culex pipiens pallens) female adult insects; assay: Test Example 3: knockdown by burning insect repellent incense in metallic cylinder, 10 minutes; conditions: B alone
Experimental: as §1, §2
Common house mosquito (Culex pipiens pallens) female adult insects 20 were placed in the glass tube with 4.5 cm of a diameter and 12 cm of a height, and they were shut in the glass tube by covering the opening parts of the top and the bottom thereof with a nylon net having 16 mesh by a rubber band. […] Ten (10) minutes later, the number of knockdowned (hereinafter, abbreviated as “KD”) individuals were recorded. […]

[3] = molecular target: Common house mosquito (Culex pipiens pallens) female adult insects; assay: Test Example 1: knockdown by burning insect repellent incense in metallic cylinder, 6 minutes; conditions: B alone, 0.01% in incense
Experimental: as §1, §2
Common house mosquito (Culex pipiens pallens) female adult insects 20 were placed in the glass tube with 4.5 cm of a diameter and 12 cm of a height, and they were shut in the glass tube by covering the opening parts of the top and the bottom thereof with a nylon net having 16 mesh by a rubber band. […] Six (6) minutes later, the number of individuals of knockdowned common house mosquito (Culex pipiens pallens) were recorded. […]

Compound | KD ratio when used alone ([1]; 0.005%) | KD ratio when used alone ([1]; 0.01%) | KD ratio when used alone ([2]; 0.005%) | KD ratio when used alone [3] | KD ratio when used alone ([2]; 0.01%)
COCc1c(F)c(F)c(COC(=O)C2C(C=C(C)C)C2(C)C)c(F)c1F (centres unmarked) [Dimefluthrin, dimefluthrin] | KD ratio 2.7% | KD ratio 68.3% | KD ratio 45.0% |  | 
C/C=C/C1C(C(=O)OCc2c(F)c(F)c(COC)c(F)c2F)C1(C)C (centres unmarked) [Metofluthrin, metofluthrin] |  | KD ratio 75.0% |  | KD ratio 30.0% | 
CC1(C)[C@H](C=C(Cl)Cl)[C@H]1C(=O)OCc1c(F)c(F)cc(F)c1F [Transfluthrin, transfluthrin] | KD ratio 5.0% | KD ratio 10.0% |  |  | KD ratio 81.7%
